Experimental data: patent US20070225213A1, “Nucleic acid carriers for delivery of therapeutic agents” (priority 2006, published 2007)

Experiments:
MCF7 = assay: Cell uptake by MTN fluorescence EX620/EM680 (Examples 10 and 13, EX051605); format: cell-based, human; settings: 10% w/w loading in DNA
Description: Materials: HSGDNA, MTN, ODNAS1116 (phosphorothioated, single stranded DNA, and Beta-cyclodextrin polymer (BCD-SBE, KKBIOMED Inc.) were previously prepared in water at 10 mg/ml, 1 mg/ml, 0.95 mg/ml, and 10 mg/ml respectively.
Procedure: For NAC-MTN, combined 37 ul HSGDNA (herring genomic DNA, Promega Inc.), 1426 ul HBSS( Hank's buffered saline, Sigma-Aldrich), with 37 ul of MTN, followed by 1500 ul 2× DMEM media to give 3 ml final and 24 uM (24 micro-molar) MTN and 10% w/w drug loading of MTN. For NAC-MTN (AR1505) combined 62 ul of HSDNA (deg. herring sperm DNA, Sigma) with 2377 ul HBSS, 61.7 ul MTN, 2500 ul 2× media to give 5 ml final and 24 uM MTN and 10% w/w drug loading of MTN to HSDNA. […]
Plate#1 Media was aspirated and cells treated with 100 ul of either NAC-MTN, CD-MTN, or MTN at 24 uM MTN final or 12.3 ug/ml MTN in all samples. Samples containing MTN were incubated 4 hours, removed, and fluorescence taken at EX620/EM680. […]
Samples were incubated 4 hours, removed, and MTN fluorescence taken at EX620/EM680. […] Average MTN fluorescence was averaged from 6 wells. For each cell type, MTN fluorescence was highest in MTN treated cells, followed by CD-MTN, and lowest in NAC-MTN. […]
PLATE#2: Dispensed 50 ul from source plate into plate #2 to give 150 ul final vol 4.1 ug/ml, 8 uMfinal per well, pre-read fluorescence w samples (bkgd) incubated 5 hr, removed, replaced w/ media, read fluor. […]

[1] = DNA addition method: NAC complexed vs unbound MTN in mouse urine (Example 17)
Procedure: To determine if NAC-MTN was excreted in urine as a complex, MTN fluorescence due to unbound NAC was assayed by an addition method. DNA was added to urine from both groups and subsequent change in fluorescence was measured.

O=C1c2c(O)ccc(O)c2C(=O)c2c(NCCNCCO)ccc(NCCNCCO)c21 [MTN, mitoxantrone]
% reduction in fluorescence relative to MTN alone (MTN = 0%) (MCF7; Plate#1, 24 uM MTN, 4 hours): 0%
% reduction in fluorescence relative to MTN alone (MTN = 0%) (MCF7; Plate#2, 8 uM MTN): 0%
% Change Fluor. on DNA addition to urine ([1]; Elapsed Time 2.5 hr): 83%
% Change Fluor. on DNA addition to urine ([1]; Elapsed Time 5 hr): 66%
% Change Fluor. on DNA addition to urine ([1]; Elapsed Time 8 hr): 71%
